This assay deals with T1, NAD(P)-dependent alcohol dehydrogenase (ADH) (Gluconobacter frateurii, UniProt Z9DFN4ZG31).
T1 construct: primers encode N-terminal MAQALVLEK and C-terminal DVKLQIVL
T1 sequence (Z9DFN4ZG31 1-345): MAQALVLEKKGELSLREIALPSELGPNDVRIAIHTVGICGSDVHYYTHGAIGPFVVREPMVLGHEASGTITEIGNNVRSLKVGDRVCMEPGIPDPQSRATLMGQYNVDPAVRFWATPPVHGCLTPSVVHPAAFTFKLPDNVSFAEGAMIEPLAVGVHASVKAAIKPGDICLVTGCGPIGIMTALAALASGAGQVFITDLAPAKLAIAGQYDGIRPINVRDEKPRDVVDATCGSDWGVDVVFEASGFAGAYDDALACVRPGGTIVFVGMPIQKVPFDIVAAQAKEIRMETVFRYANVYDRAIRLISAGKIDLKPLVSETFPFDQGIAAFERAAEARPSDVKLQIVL
The assay is described as follows: global fit (genetic algorithm) of HPLC time courses at […] allitol. In kind it is biochemical. The note with it: product inhibition, noncompetitive form with exponent alpha 1.326; one ki shared by fits with and without Co2+; allitol as substrate; NAD+ 2 mM, pH 7.0, 50 °C; purified or crude enzyme not stated.

Each structure is given as a SMILES string. pKi: −log10 of the molar value.

As usually defined, the pKi is the negative decadic logarithm of the Ki, by convention in mol/L. Higher therefore signals a low Ki. Molecule `OCC1(O)OC[C@@H](O)[C@@H](O)[C@H]1O` (stereo partly drawn) [D-allulose] gave a negative-log Ki (pKi) of 1.97.

(Values after publication PMC9083112, “D-Allulose (D-Psicose) Biotransformation From Allitol by a Newly Found NAD(P)-Dependent Alcohol Dehydrogenase From Gluconobacter frateurii NBRC 3264 and the Enzyme Characterization” (Frontiers in Microbiology, 2022).)
